According to article PMC4745926, “Absorption, Metabolism, and Excretion by Freely Moving Rats of 3,4-DHPEA-EDA and Related Polyphenols from Olive Fruits (Olea europaea)” (Journal of Nutrition and Metabolism, 2016):
Where “and” joins values, the source holds several entries; their conditions need not be identical. Identical values can stand only once. Entries after “also recorded” stand apart in the source; their conditions may differ.

Test: Urinary excretion after oral administration
Type: in vivo, Wistar ST rats
Protocol: SPF Wistar ST rats (6 weeks of age, male, 180 ± 20 g of body weight) were purchased from Japan SLC Inc. (Hamamatsu, Japan). The rats were housed in an air-conditioned room at 22 ± 2°C under cycles of 12 hours dark and 12 hours light and given free access to a commercial diet and water for a week. The rats were then fasted for over 16 hours before the experiments. The present study was approved by the Animal Care and Use Committee at Kagawa University, and the rat treatment conformed to the Rules of Animal Experiments at Kagawa University. 3,4-[…] (300 mg/kg body weight; 936.51 μmol/kg) dissolved in 50% polyethylene glycol aqueous solution was administered orally via a stomach tube to the portal vein cannulated rats. Blood samples (450 μL) were then collected using a heparinized syringe attached to the cannula before administration and 5, 15, 30, 60, 120, and 240 min after administration. Urine was also collected before administration and 0 to 2 h and 2 to 4 h after administration. For intravenous administration, 3,4-[…] (10 mg/kg; 31.22 μmol/kg) was injected into the jugular vein, and blood (450 μL) was collected using a heparinized syringe before administration and 5, 15, 30, 60, 120, and 240 min after administration via the jugular vein cannula. The blood (450 μL) collected was immediately cooled on ice and centrifuged at 15,000 rpm for 5 min at 4°C to obtain over 200 μL plasma. Urine was also collected before administration and 0 to 2 h and 2 to 4 h after administration. Bile was collected via the bile duct cannula before administration and 0 to 2 h and 2 to 4 h after intravenous administration. The collected plasma, urine, and bile were immediately stored in an ice box until further analyses. HT (oral administration: 100 mg/kg; 648.66 μmol/kg, intravenous administration: 10 mg/kg; 64.87 μmol/kg) and Ole (oral administration: 300 mg/kg; 555.02 μmol/kg, intravenous administration: 10 mg/kg; 18.50 μmol/kg) were investigated using the same method as described above. Metabolites were deconjugated by using β-glucuronidase (500 U) and sulfatase (50 U) in 50 μL 625 mM MOPS (pH 6.8), which was added to 200 μL of plasma, urine, or bile. The mixture was incubated for 45 min at 37°C and subjected to extraction using QuEChERS [33]. […] Shimadzu, Kyoto, Japan) equipped with a Shim-pack XR-ODS column (3.0 mm I.D. × 100 mm; Shimadzu, Kyoto, Japan) at 40°C with a mobile phase of 0.5% TFA-1% acetonitrile aqueous solution (A) and 0.5% TFA-75% acetonitrile aqueous solution (B). The elution conditions are described as follows: isocratic elution of 0% B was maintained for 4.0 min; linear gradient 0 to 4% B, 4.0-4.5 min; linear gradient 4.0-16.0% B, 4.5-16.0 min; linear gradient 16.0-100% B, 16.0-25.0 min; isocratic elution of 100% B, 25.0-26.0 min; and linear gradient 100 to 0% B, 26.0-26.1 min, with a flow rate of 0.5 mL/min. Injection volume was 50 μL. All eluted peaks were detected at 279 nm with a diode array detector (SPD-M20A; Shimadzu, Kyoto, Japan).

[1] = after oral administration, within 240 min

| Ole in urine (after oral administration) | HT in urine [1] | HVA in urine [1] | HVAOH in urine [1] | total excretion ratio including metabolites (3,4-DHPEA-EDA : HT : Ole) (urine after oral administration, Ole = 1) | Total metabolites (including intact compound) excreted in the urine (within 240 min after oral administration) [%] | SMILES | Detection of 3,4-DHPEA-EDA in urine (after oral administration) |
| --- | --- | --- | --- | --- | --- | --- | --- |
| 0.07 % of dose |  |  |  |  |  | C/C=C1/[C@H](O[C@@H]2O[C@H](CO)[C@@H](O)[C@H](O)[C@H]2O)OC=C(C(=O)OC)[C@H]1CC(=O)OCCc1ccc(O)c(O)c1 [Oleuropein, reference compound] |  |
|  | 1.14 % of dose |  |  |  |  | OCCc1ccc(O)c(O)c1 [Hydroxytyrosol, 2-(3,4-dihydroxyphenyl) ethyl alcohol, reference compound] |  |
|  | 0.51 % of dose | 0.38 % of dose and 0.39 % of dose | not detected | 12.9 | 0.9 | CC=C(C=O)C(CC=O)CC(=O)OCCc1ccc(O)c(O)c1 (centres unmarked) [3,4-DHPEA-EDA, 3,4-dihydroxyphenylethyl elenolate dialdehydic form] | not observed; also recorded: not detected |
